Where two headings read alike, the source gives them in different places.

A short description of one data set: in vivo. Set-up: species or system rats. The settings on record: rat. As to the method: Preferential concentration of berberine in the heart rather than in other thoracic organs or the liver is a sine qua non for a good imaging agent. Berberine level measurements were done spectrophotometrically. The experiment consisted of injecting 3.5 mg/Kg of berberine ([…]) intravenously and killing the rats after 15 minutes, 90 minutes, 6 hours, 24 hours, 48 hours and 1 week. Each group consisted of 5-6 rats. A control group (no berberine administration) was used to determine the absorbance of the different organs at that wave length. […] It was released rapidly from the heart thus showing no significant tendency to accumulate in that organ. Its concentrate was 1, 1 and 3 pg/g in the lungs and 0.2 and 0 in the skeletal muscles or in the blood at the same time intervals.

A further data set has as its system dogs. Nature of the data set: Myocardial oxygen consumption (MV02) and epicardial ST segment elevation experiments. The class given is in vivo. The source says: These changes were due to lower. myocardial oxygen consumption during the occlusion with berberine treatment. […] This is quite an advanageous therapeutic combination of properties which further distinguish the compounds used in the invention from the conventional drugs.

The test system of data set [1] is healthy adult mongrel dogs. Briefly: Protocol M: hemodynamics in anesthetized open-chest dogs, systolic arterial pressure held constant. The format is in vivo.
Data set [2] concerns anesthetized closed chest dogs. Nature of the data set: Association of ouabain and berberine on contractility (LV dP/dt), constant systolic pressure. The settings on record: ouabain 0.03 mg/Kg i.v. bolus. The format is in vivo. As to the method: In anesthetized closed chest dogs the systolic arterial pressure was maintained constant with a reservoir full of heparinized blood (as in protocol "M" and "Z" described above) and a "pigtail" and Millar catheter were introduced into the left ventricular cavity (as in protocol "Z" and "HV", described above). All data was recorded on 8 channel polygraph (Gould Instruments) with a paper speed of 200 mm/s when necessary and at 2 mm/s constantly.

The subject of data set [3] is Mongrel dogs. Nature of the data set: Protocol HV: acute left ventricular failure by coronary microsphere embolization, closed chest. The class given is in vivo. The following applies: ouabain 0.03 mg/kg during 30 minutes. Here is the method: - Experiments were carried out in 21 mongrel dogs of either sex with body weight between 19 and 39 kg. Anesthesia was induced with sodium pentobarbital, 25 mg/kg of body weight intravenously, and small supplementary doses were given as necessary to maintain a constant level of anesthesia. The dogs were placed in the left lateral position and ventilation was maintained through a cuffed endotracheal tube with a volume-controlled respirator (Harvard Apparatus Co., Millis, Massachusetts). Polyethylene cannuleae were placed into the jugular and femoral veins for intravenous infusions and drug adminstration. Electrocardiograms (lead aVF) were monitored continuously throughout the experiments.
A polyethylene cannula was introduced into the aorta through the left carotid artery to record arterial pressure. (Stantham P23 ID transducer, Stantham Instruments, Inc. Oxnard, California). A Millar microtip transducer catheter (Millar Instruments, Inc., Houston, Texas) was introduced into the left ventricular cavity through the femoral artery to measure left ventricular pressures. For adjustment of zero level, left ventricular pressure was also measured through the fluid-filled lumen in the Millar catheter (Statham P23 ID transducer). The maximal rate of rise of left ventricular pressure, LV dP/dt, was recorded by means of a differentiator. All these parameters were recorded continuously on a polygraph (Gould 2800, Gould Instruments, Cleveland, Ohio). Cardiac output was determined by the thermodilution technique, using a thermistor catheter in the pulmonary artery and calculated by a cardiac output computer (Elecath, Electro- catheter Corp., Rahway, New Jersey). The coefficient of variation for duplicate CO measurements was 5%. In addition to the parameters directly obtained, total peripheral vascular resistance was calculated from the ratio of […] and cardiac output. Stroke volume was calculated by dividing cardiac output by heart rate. Heparin (Invendex) (5000 IU) was administered to avoid clotting of the catheters.
To induce acute left vetricular failure, initially the left main coronary artery was catheterized with a Judkin coronary artery catheter (7F, ISCI Cardiology and Radiology Products, Billerica, Massachusetts) under fluoroscopic control. It was introduced through a femoral artery, and polystyrene microspheres (3M Company, St. Paul, Minnesota) with a diameter of 52. 5 ± 4.0 µm (mean±SD) were injected into the coronary artery. The microspheres were used in a concentration of 1 mg (i.e., 12,000) per ml saline. The first dose of microsphere solution was 0.5 mi/kg body weight, and all subsequent doses were 0.25 ml/kg body weight, administered every 5 minutes. Administration of microspheres was discontinued when LV/dP/dt had been reduced by 30% or more when measured 4 minutes after the last dose. All dogs received prophylactic antiarrhythmic treatment with intravenous lidocaine, 1.5 mg/kg body weight as a bolus 20 min after the end of embolization, followed by a continuous infusion of […].
Forty-five minutes were allowed to elapse to verify the stability of the preparation. If Lv dP/dt or left ventricular end diastolic pressure had changed by 20% or more between 30 and 45 minutes after embolization, the dogs were excluded from this study and not randomized. Forty-five minutes after the end of embolization, the dogs were assigned randomly to three groups: a) Berberine-treated group, 0.2 mg/kg/ min, dissolved in 60 ml of a solution of 5% dextrose in water administered in a constant infusion during 30 minutes; b) ouabain-treated group, 0.03 mg/kg was administered in 60 ml of a 5% solution of dextrose in water during 30 minutes; and c) Control group, administration of 60 ml of a 5% solution of dextrose in water during 30 min. […]

Data set [4] has as its system closed-chest anesthetized dogs. The settings on record: for rise of diastolic pressure: only digitalis. As to the method: A study was carried out to examine the effects of the simultaneous administration of berberine on digitalis (i.e. ouabain) produced arrhythmias.
The experiments were conducted in closed-chest anesthetized dogs which were randomized to three groups. All received ouabain 0.03 mg/Kg as a bolus intravenously and thereafter a continuous infusion with a constant rate of 0.0006 mg/Kg/min until death. […] The second group received simultaneously berberine 1 mg/Kg intravenously as a bolus and then 0.2 mg/Kg/min as a continous infusion. The third group received berberine only after the appearance of VEA in a frequency of 50% of more of all systoles.
Moreover, the effects of intravenous bolus injection of berberine (0.4 to 1 mg/Kg) was studied (in comparison to dextrose 5% injection).

The subject of data set [5] is Mongrel dogs. Briefly: Protocol Z: continuous 35 minute infusion in anesthetized open-chest dogs, constant left ventricular pressure. The class given is in vivo. Here is the method: Mongrel dogs weighing between 15 and 25 kg were anesthetized with intravenous sodium thiamylal (20 mg/kg initially with additional doses given as needed). The dogs were intubated endotracheally, and respiration was maintained by a Harvard respirator. The chest was then opened in the fourth left intercostal space and the heart suspended temporarily in a pericardial cradle.
Aortic pressures were recorded through a polyethylene cannula introduced through the carotid artery (Statham P23 Db pressure transducer) and electrocardiogram (lead aVF) were recorded throughout the experiment on a polygraph (Gould Instruments). Another polyethylene cannula was placed in the left atrium for measurement of atrial pressure (Statham P23 Db pressure transducer). An electromagnetic flowmeter (Biotonix Laboratories) was placed around the ascending aorta and the aortic flow was recorded on a polygraph. Two catheters were inserted into the left ventricle through a femoral artery.
The first ("pigtail") served as a reference, while the second (Millar microtip transducer catheter) was connected through a Millar transducer (Millar Instruments, Houston, Texas) to the polygraph, where both left ventricular pressure curves were recorded simultaneously. The left ventricular end diastolic pressure was recorded separately through a Millar catheter. The first derivative of the left ventricular pressure (dP/dt) was obtained by electronic differentiation of the left ventricular pulse recorded through the Millar catheter.
A reservoir of blood was connected with the femoral artery in order to maintain constant left ventricular pressure during the experiment. In this protocol, similarly to protocol M, systemic arterial pressure was maintained constant in order to have accurate measurements of dP/dt which represent well left ventricular contractility when the systolic pressure is maintained constant. However, calculated total peripheral resistance will be higher (an underestimation of the fall). After stabilization of hemodynamics as reflected by continuously monitored parameters for 15 minutes, the substances to be studied were infused intravenously using a Harvard infusion pump. Registrations were made every 5 minutes at a paper speed of 200 mm/second, while all the parameters were recorded constantly at a speed of 2 mm/second. The dogs were randomly assigned to several groups: • Group a) Control - in these dogs a solution of 5% dextrose in water was infused in the same quantity as in the berberine treated animals (n = 7).
In all berberine, berberrubine coreximine and tetrahydropalmatine groiups the compounds were infused at constant rate for 35 minutes and the data analyzed at 5 minute intervals. • Group b) Berberine 0.7 mg/Kg/min (n = 10). • Group c) Berberine 0.2 mg/Kg/min (n = 7). • Group d) Berberine 0.02 mg/Kg/min (n = 7). • Group e) Berberrubine 0.2 mg/Kg/min (n = 7). • Group f) Tetrahydropalmatine 0.2 mg/Kg/min (n = 4). • Group g) Coreximine 0.2 mg/Kg/min (n = 8).
Therefore, group b, c and d were used to analyze the various effects of continuous infusion of berberine and its dose response and groups e and f and g used to examine the effects of these three other proberberines. Moreover, their effects were compared to the berberine treated dogs with the same dose (i.e. Group c).

The test system of the next data set is dog. Nature of the data set: Protocol M simile: high or repetitive infusions in single dogs. The format is in vivo. Here is the method:
It is noted that the dP/dt increased by 350% after the eighth dose and dF/dt by 450%.
In one dog using protocol M simile, 240 mg/Kg of berberine HCI was administered and dP/dt increased by 75%, aortic flow by 67%, heart rate fell from 150 to 114 beats/min., diastolic aortic pressure fell from 92 to 67 mmHg, and left atrial pressure fell from 8.5 to 7.5 mmHg.
When this type of experiment was repeated with tetrahydropalmatine, a first dose of 3.5 mg/Kg was given without maintaining the pressure constant and arterial pressure fell from 142/115 to 118/90 mmHg. When the second infusion was given with constant pressure, dP/dt increased by 17%.

Regarding `COc1ccc2cc3[n+](cc2c1OC)CCc1cc2c(cc1-3)OCO2` [berberine (S04), berberine], the “concentrate in the liver” value in “in vivo” (15 min) is 0 1l9/g. The “concentrate in the liver” value in the data set “in vivo” (90 min) was 6 1l9/g. Further, the “concentrate in the liver” value in “in vivo” (6 h) is listed as 2 1l9/g. Moreover, in the data set “in vivo” (concentrate in the lungs), the concentration at 15 min turned out to be 0.001 ng/g, the concentration at 90 min turned out to be 0.001 ng/g and the concentration at 6 h is 0.003 ng/g.

As for `CC(C)NCC(O)c1ccc(O)c(O)c1` (centres unmarked) [isoproterenol, reference compound], the “epicardial ST segment elevations” value in the data set on dogs (after coronary artery occlusion) is on record as “increased”. Moreover, the “mycardial oxygen consumption (MV02)” value in the data set on dogs (non-failing heart, dose that increases LV dP/dt similarly) was “significantly augmented”.

As for `C[C@@H]1O[C@@H](O[C@H]2C[C@@H](O)[C@]3(CO)[C@H]4[C@H](O)C[C@]5(C)[C@@H](C6=CC(=O)OC6)CC[C@]5(O)[C@@H]4CC[C@]3(O)C2)[C@H](O)[C@H](O)[C@H]1O` [ouabain, reference compound], the “flow in the descending aorta” value in data set [1] (after ouabain 0.03 mg/Kg i.v. bolus, from 1195 ± 89) was found to be 1018 ± 93 mL/min. Also, in data set [1] (ouabain 0.03 mg/Kg i.v. bolus), the diastolic aortic pressure result is listed as “did not change significantly”. In addition, the “increase of calculated peripheral resistance” value in data set [1] (ouabain 0.03 mg/Kg i.v. bolus) was 18%. In addition, the “decrease of flow in the descending aorta” value in data set [1] (ouabain 0.03 mg/Kg i.v. bolus, 11 dogs, after the 90 minute experiments) turned out to be 15%. Besides, the “increase in dP/dt, of the initial value of peak LV dP/dt” value in data set [2] (5 minutes) was determined as 17±2%; in data set [2] (10 minutes) it was 24±3%; in data set [2] (15 minutes), 34±4%; in data set [2] (20 minutes) it was 36±4%; in data set [2] (25 minutes) it was 44±6%; in data set [2] (30 minutes), 49±7%. Further, the “hemodynamic parameters from before to 30 minutes after the start of drug administration” value with Mongrel dogs [3] is listed as “did not change any of the hemodynamic parameters”. In data set [4] (control situation, ouabain alone), the “dose of ouabain to provoke VT” value stood at 0.04 mg/kg. For the same compound, the “amount of ouabain that provoked VT” value in data set [4] (controls, ouabain alone) came to 0.048 mg/kg.

Take `COc1cc2c(cc1OC)[C@@H]1Cc3ccc(OC)c(OC)c3CN1CC2` [tetrahydropalmatine]: the “reduction of calculated peripheral resistance” value with Mongrel dogs [5] (0.2 mg/Kg/min) was “over 30%”. Besides, the “fall of heart rate (HR)” value in the data set with Mongrel dogs [5] (0.2 mg/Kg/min (Table XIII)) was 5.5%. Further, in the data set with dog (first dose 3.5 mg/Kg, pressure not held constant, from 142/115), the arterial pressure is recorded as 118/90. The “increase of dP/dt” value in the data set with dog (second infusion, constant pressure) stood at 17%.

Take digitalis [reference compound]: the “rise of diastolic pressure” value in data set [4] (10 minutes) was found to be 31±9%; in data set [4] (20 minutes), 16±11%; in data set [4] (30 minutes), 34±15%; in data set [4] (60 minutes) it was 16±7%.

The values are drawn from EP0108147B1, “Use of a protoberberine alkaloid and composition containing same” (MAROKO, Peter R., priority 1982, dated 1983).
